From ChEMBL document CHEMBL1141467, “Multi-target-directed ligands to combat neurodegenerative diseases” (J Med Chem, 2008)

Legend:
[1] = Inhibition of zinc-induced amyloid beta aggregation at 25 uM
[2] = target: T1, 5-hydroxytryptamine receptor 3A (Homo sapiens, UniProt P46098)
T1 sequence (P46098 whole entry): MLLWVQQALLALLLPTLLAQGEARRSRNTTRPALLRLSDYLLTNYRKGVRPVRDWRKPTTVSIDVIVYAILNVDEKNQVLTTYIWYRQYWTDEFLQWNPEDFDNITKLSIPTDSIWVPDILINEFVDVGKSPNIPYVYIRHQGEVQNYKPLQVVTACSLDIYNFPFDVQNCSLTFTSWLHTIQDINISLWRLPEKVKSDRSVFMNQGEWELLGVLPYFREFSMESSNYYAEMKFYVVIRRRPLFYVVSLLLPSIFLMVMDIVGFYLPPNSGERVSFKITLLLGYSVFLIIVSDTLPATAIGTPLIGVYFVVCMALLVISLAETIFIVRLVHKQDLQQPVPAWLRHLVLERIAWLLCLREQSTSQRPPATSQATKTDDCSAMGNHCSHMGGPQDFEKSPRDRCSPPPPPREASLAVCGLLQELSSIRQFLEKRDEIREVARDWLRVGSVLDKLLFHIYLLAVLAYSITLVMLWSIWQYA
Description: Binding affinity to 5HT3 receptor

[3] = target: T2, Amine oxidase [flavin-containing] A (Homo sapiens, UniProt P21397)
T2 sequence (P21397 whole entry): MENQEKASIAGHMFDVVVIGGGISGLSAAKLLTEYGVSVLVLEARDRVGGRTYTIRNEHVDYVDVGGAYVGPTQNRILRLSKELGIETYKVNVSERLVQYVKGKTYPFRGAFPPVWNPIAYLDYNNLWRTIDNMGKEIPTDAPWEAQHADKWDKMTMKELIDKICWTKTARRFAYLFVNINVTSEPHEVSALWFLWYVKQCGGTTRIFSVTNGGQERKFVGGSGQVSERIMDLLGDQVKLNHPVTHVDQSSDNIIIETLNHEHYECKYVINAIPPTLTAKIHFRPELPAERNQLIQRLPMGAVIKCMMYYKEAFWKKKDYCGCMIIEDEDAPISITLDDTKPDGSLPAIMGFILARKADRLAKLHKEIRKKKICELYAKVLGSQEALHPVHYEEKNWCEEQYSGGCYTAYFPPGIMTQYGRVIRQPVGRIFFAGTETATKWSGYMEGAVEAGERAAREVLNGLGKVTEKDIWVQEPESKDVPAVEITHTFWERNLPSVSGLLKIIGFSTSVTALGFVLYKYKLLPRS

[4] = target: T3, Amine oxidase [flavin-containing] B (Homo sapiens, UniProt P27338)
T3 sequence (P27338 whole entry): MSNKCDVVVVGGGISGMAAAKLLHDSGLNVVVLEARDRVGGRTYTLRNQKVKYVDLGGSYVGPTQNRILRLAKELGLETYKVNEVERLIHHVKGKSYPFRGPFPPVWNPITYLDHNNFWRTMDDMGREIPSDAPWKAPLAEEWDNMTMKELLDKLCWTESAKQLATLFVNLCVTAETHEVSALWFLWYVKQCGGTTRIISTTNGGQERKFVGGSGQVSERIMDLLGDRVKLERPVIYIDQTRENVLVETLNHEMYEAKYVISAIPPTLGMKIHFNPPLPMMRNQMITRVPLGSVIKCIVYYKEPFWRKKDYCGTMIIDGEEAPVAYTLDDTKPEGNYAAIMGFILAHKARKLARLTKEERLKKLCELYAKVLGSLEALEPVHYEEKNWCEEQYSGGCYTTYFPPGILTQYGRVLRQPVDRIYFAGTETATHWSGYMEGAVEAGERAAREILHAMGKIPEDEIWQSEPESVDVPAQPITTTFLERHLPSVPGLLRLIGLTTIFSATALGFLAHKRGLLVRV

[5] = target: T4, Acetylcholinesterase (Homo sapiens, UniProt P22303)
[6] = Inhibition of amyloid beta aggregation at 100 uM; set-up: scale not given: the % may be the effect or the level left
[7] = target: T5, Muscarinic acetylcholine receptor M2 (Homo sapiens) (UniProt P08172); experiment: Antagonist activity at muscarinic M2 receptor; assay type: functional
T5 sequence (whole entry): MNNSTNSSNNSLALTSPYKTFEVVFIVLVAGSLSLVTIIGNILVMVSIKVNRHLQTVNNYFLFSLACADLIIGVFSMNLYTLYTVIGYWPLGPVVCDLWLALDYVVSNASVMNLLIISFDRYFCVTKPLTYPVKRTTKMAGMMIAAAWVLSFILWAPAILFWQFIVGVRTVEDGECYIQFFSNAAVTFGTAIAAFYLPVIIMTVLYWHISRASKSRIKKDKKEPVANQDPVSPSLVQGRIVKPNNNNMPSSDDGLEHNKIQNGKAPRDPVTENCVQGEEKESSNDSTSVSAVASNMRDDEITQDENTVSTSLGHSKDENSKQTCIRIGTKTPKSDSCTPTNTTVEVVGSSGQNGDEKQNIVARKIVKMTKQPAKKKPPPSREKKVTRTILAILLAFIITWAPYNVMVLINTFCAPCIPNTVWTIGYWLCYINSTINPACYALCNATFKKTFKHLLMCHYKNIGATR

[8] = Inhibition of metal-induced amyloid beta aggregation at 50 uM
[9] = target: Sodium-dependent serotonin transporter (Homo sapiens, UniProt P31645)
[10] = Protection against ROS induced by oxidative stress at 10 uM in neuronal cells; assay type: functional
[11] = target: T4, Acetylcholinesterase; remark: listed apart in the source
Description: Inhibition of human AchE-induced amyloid beta aggregation

[12] = organism: Homo sapiens; experiment: Selectivity for human Ach over human BuCh
[13] = target: Beta-secretase 1 (Homo sapiens, UniProt P56817); experiment: Inhibition of BACE1
[14] = target: T4, Acetylcholinesterase; experiment: Inhibition of human AchE induced amyloid beta42 aggregation
[15] = target: D(2) dopamine receptor (Homo sapiens, UniProt P14416); experiment: Binding affinity to human dopaminergic D2 receptor
[16] = target: D(3) dopamine receptor (Homo sapiens, UniProt P35462); experiment: Binding affinity to human dopaminergic D3 receptor
[17] = target: T6, D(4) dopamine receptor (Homo sapiens, UniProt P21917); experiment: Binding affinity to human dopaminergic D4 receptor
T6 sequence (P21917 whole entry): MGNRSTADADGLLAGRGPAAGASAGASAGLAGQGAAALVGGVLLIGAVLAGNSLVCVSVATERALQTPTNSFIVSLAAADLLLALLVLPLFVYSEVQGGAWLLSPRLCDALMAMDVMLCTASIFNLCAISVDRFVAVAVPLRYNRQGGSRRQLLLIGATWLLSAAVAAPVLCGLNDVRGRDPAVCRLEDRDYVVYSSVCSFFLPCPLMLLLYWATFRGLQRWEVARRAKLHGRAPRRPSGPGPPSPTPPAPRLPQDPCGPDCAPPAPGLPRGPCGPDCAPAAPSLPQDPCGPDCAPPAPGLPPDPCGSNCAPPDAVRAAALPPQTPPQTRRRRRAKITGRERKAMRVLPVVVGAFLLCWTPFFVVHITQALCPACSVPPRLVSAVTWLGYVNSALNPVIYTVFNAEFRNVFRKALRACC

[18] = target: T7, 5-hydroxytryptamine receptor 1A (Homo sapiens, UniProt P08908); experiment: Binding affinity to human 5HT1A receptor
T7 sequence (P08908 whole entry): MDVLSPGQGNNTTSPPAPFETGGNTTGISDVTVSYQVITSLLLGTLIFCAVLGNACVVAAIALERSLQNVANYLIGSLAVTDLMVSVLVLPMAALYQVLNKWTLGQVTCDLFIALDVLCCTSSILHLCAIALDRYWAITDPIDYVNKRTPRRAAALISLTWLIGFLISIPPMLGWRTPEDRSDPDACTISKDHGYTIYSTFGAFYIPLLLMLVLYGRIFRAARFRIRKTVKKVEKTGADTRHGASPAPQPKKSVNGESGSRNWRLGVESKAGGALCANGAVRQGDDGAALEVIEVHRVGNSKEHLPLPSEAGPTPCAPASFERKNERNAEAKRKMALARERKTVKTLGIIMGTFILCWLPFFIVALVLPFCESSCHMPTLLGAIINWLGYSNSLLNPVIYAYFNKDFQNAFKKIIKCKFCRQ

[19] = substrate: CCN(CCCCCCNC1=CC(=O)C(NCCCCCCN(CC)Cc2ccccc2OC)=CC1=O)Cc1ccccc1OC; experiment: Binding affinity to NQQ1

T4 sequence (P22303 whole entry): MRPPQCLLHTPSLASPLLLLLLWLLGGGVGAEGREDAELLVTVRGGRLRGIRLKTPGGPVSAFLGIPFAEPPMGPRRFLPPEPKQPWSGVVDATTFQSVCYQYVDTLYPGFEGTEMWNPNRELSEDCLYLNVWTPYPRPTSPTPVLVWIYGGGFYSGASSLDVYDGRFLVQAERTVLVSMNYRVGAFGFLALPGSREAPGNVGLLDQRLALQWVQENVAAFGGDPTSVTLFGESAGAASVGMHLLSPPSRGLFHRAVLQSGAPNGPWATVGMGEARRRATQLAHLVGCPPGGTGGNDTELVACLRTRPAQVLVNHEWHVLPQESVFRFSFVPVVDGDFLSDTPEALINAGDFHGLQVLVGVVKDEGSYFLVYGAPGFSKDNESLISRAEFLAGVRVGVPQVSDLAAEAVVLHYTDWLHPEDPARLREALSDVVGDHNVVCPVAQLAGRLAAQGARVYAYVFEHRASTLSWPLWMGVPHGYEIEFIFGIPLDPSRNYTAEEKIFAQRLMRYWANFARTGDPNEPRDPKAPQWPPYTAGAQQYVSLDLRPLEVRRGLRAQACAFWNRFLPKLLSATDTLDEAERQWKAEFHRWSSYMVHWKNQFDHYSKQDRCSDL
D(3) dopamine receptor, sequence (P35462 whole entry): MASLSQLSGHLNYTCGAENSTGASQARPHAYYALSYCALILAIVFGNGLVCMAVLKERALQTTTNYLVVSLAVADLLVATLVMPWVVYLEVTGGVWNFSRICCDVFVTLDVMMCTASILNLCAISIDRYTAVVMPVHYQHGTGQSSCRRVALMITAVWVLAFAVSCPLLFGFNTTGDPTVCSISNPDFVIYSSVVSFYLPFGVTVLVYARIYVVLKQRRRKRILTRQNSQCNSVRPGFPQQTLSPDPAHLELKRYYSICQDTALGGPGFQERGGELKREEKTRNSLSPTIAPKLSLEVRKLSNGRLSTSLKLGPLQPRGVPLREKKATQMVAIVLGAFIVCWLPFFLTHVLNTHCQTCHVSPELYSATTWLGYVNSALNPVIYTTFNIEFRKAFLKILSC
Beta-secretase 1, sequence (P56817 whole entry): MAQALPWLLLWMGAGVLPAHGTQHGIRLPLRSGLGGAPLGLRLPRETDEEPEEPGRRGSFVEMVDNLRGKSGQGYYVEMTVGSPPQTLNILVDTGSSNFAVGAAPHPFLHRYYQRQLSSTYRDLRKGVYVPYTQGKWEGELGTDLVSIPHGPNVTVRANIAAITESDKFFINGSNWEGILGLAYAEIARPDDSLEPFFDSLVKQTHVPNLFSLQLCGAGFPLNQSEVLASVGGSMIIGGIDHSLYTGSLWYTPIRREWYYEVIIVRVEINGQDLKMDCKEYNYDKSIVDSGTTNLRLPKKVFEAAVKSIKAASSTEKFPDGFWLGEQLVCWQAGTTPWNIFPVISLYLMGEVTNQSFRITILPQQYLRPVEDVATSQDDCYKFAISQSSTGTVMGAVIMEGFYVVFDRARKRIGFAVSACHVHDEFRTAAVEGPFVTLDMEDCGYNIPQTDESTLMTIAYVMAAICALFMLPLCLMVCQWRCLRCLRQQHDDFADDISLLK
D(2) dopamine receptor, sequence (P14416 whole entry): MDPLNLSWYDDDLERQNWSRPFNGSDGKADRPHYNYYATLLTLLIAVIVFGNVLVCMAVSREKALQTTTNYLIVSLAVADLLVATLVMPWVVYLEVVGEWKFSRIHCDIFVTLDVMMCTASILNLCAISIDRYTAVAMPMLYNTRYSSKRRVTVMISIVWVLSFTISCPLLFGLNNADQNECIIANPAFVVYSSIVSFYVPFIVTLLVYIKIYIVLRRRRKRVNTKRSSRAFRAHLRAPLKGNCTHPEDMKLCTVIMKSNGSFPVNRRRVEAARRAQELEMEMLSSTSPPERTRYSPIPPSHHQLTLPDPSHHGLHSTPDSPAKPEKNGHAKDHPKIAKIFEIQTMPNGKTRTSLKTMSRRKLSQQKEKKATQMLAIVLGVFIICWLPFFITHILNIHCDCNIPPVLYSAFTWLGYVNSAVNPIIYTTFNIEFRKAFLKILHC
Sodium-dependent serotonin transporter, sequence (P31645 whole entry): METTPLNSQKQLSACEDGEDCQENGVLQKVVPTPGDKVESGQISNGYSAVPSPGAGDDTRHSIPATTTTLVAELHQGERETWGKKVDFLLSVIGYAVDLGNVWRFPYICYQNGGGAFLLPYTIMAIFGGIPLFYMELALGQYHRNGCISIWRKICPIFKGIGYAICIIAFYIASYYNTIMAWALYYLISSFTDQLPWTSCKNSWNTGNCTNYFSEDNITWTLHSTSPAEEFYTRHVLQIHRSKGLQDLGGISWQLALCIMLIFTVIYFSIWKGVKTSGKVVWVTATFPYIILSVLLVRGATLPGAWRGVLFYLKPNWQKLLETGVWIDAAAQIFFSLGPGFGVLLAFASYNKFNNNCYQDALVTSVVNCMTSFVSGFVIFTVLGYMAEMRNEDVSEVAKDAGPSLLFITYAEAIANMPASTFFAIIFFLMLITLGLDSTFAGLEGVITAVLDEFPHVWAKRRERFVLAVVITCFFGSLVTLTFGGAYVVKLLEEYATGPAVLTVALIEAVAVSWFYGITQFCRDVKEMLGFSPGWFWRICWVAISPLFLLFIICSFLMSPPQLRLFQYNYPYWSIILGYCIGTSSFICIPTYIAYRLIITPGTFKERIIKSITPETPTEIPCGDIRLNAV

O=C(O)CN(CCN(CC(=O)O)CC(=O)Nc1ccc(-c2nc3ccccc3s2)cc1)CCN(CC(=O)O)CC(=O)Nc1ccc(-c2nc3ccccc3s2)cc1
IC50 [1]: > 50%

Cc1c(N2CCN(C)CC2)nc2ccccc2c1C(=O)NCCCCCCCNc1c2c(nc3ccccc13)CCCC2
Ki [2]: 5.6 nM

C#CCNCc1ccnc2c(O)cccc12
IC50 [3]: 2390 nM
IC50 [4]: 4240 nM

Clc1cccc(Cl)c1CO/N=C/c1cc[n+](CCC[n+]2ccc(/C=N/OCc3c(Cl)cccc3Cl)cc2)cc1
IC50 [5]: 6000 nM
Activity [6]: 55%

C#CCN(C)C(C)Cc1cccc(OC(=O)N(C)CCCCCC)c1 (stereo not given)
IC50 [3]: 20000 nM
IC50 [4]: 1500 nM

Clc1cccc(Cl)c1CO/N=C/c1cc[n+](CCCc2ccccc2)cc1
IC50 [5]: 180 nM
Activity [6]: 60%

COc1ccccc1CN(C)CCCCCC(=O)N(C)CCCCCCCCN(C)C(=O)CCCCCN(C)Cc1ccccc1OC
Kb [7]: 410 nM

CN(CCN(C)Cc1cc(O[C@@H]2O[C@H](CO)[C@@H](O)[C@H](O)[C@H]2O)cc(C(C)(C)C)c1O)Cc1cc(O[C@H]2O[C@@H](CO)[C@H](O)[C@@H](O)[C@@H]2O)cc(C(C)(C)C)c1O
IC50 [8]: > 50%

C#CCN(C)Cc1ccnc2c(O)cccc12
IC50 [3]: 37 nM
IC50 [4]: 57 nM

C#CCN[C@@H]1CCc2ccc(OC(=O)N(C)CC)cc21 [LADOSTIGIL]
IC50 [5]: 52400 nM
IC50 [3]: 85000 nM
IC50 [4]: 120000 nM

CCN(C)C(=O)Oc1cccc([C@H](C)N(C)C)c1 [RIVASTIGMINE]
IC50 [9]: > 1000 nM

CCN(CCCCCC(=O)N1CCC(C2CCN(C(=O)CCCCCN(CC)Cc3ccccc3OC)CC2)CC1)Cc1ccccc1OC
Kb [7]: 660 nM

O=C(CCCCC1CCSS1)NCCCNc1c2c(nc3cc(Cl)ccc13)CCCC2 (stereo not given) [LIPOCRINE]
IC50 [5]: 0.25 nM
Activity [10]: 62%
IC50 [11]: 45000 nM

O=C(CCCCCCNc1c2c(nc3cc(Cl)cc(Cl)c13)CCCC2)NCCc1c[nH]c2ccccc12
Selectivity ratio [12]: 1000

O=C(CCc1c[nH]c2ccccc12)NCCCCCCNc1c2c(nc3cc(Cl)ccc13)CCCC2
IC50 [5]: 0.02 nM
IC50 [6]: 2000 nM

COc1ccccc1CNCCCNCCCNCCC[n+]1c(-c2ccccc2)c2cc(N)ccc2c2ccc(N)cc21
IC50 [5]: 952 nM

c1ccc2c(NCCc3ccc(OCCCN4CCCCC4)cc3)c3c(nc2c1)CCCC3
IC50 [5]: 2.6 nM
Ki [2]: 0.33 nM

CCN(CCCCCCNC1=CC(=O)C(NCCCCCCN(CC)Cc2ccccc2OC)=CC1=O)Cc1ccccc1OC [MEMOQUIN]
IC50 [13]: 108 nM
IC50 [14]: 5930 nM

C#CCN1CCN(Cc2ccnc3c(O)cccc23)CC1
IC50 [3]: 300000 nM
IC50 [4]: 64200 nM

C#CCN[C@@H]1CCc2cc(Cl)c(OC(=O)N(C)CCC)cc21
IC50 [5]: 43900 nM
IC50 [3]: 375000 nM
IC50 [4]: 32000 nM

Cc1c(O[C@@H]2O[C@H](CO)[C@@H](O)[C@H](O)[C@H]2O)c(=O)ccn1C
Activity [8]: > 50%

Fc1ccc(-c2cncc(CNC[C@H]3CCc4ccccc4O3)c2)cc1 [SARIZOTAN]
IC50 [15]: < 6 nM
IC50 [16]: < 6 nM
IC50 [17]: < 6 nM
IC50 [18]: < 6 nM
IC50 [2]: < 6 nM

O=C(CCc1c[nH]c2ccccc12)NCCCCCCCNc1c2c(nc3cc(Cl)ccc13)CCCC2
IC50 [5]: 0.06 nM
Activity [6]: 65%
IC50 [11]: 9000 nM

B1: Quinone oxidoreductase (Homo sapiens), Q08257 (protein)
chain: MATGQKLMRAVRVFEFGGPEVLKLRSDIAVPIPKDHQVLIKVHACGVNPVETYIRSGTYSRKPLLPYTPGSDVAGVIEAVGDNASAFKKGDRVFTSSTISGGYAEYALAADHTVYKLPEKLDFKQGAAIGIPYFTAYRALIHSACVKAGESVLVHGASGGVGLAACQIARAYGLKILGTAGTEEGQKIVLQNGAHEVFNHREVNYIDKIKKYVGEKGIDIIIEMLANVNLSKDLSLLSHGGRVIVVGSRGTIEINPRDTMAKESSIIGVTLFSSTKEEFQQYAAALQAGMEIGWLKPVIGSQYPLEKVAEAHENIIHGSGATGKMILLL
Km [19]: 12.7 µM
